In paper PMC8688338 (Molecular microbiology, 2021):
Values joined by “and” are separate entries in the source; they are usually repeats but may differ in a detail not shown here. Equal values may be shown once. Read-outs that look alike come from different tables or passages of the source.

Experiments:
[1] = system: vaginal trichomonad infection; conditions: murine model of vaginal trichomonad infection; ref Natto et al., 2021; cited from earlier work
[2] = molecular target: T. vaginalis nucleoside transporters, Cytidine (HA); experiment: High affinity [3H]-cytidine transport in T. vaginalis trophozoites; assay type: cell-based, Trichomonas vaginalis; conditions: read-out: Ki,app, inhibition of […] [3H]-cytidine transport, 30 s, average and SEM
[3] = system: low affinity pyrimidine nucleobase transporter of T. vaginalis; experiment: [3H]-uracil transport in T. vaginalis trophozoites; assay type: cell-based, Trichomonas vaginalis; conditions: for inhibition of uracil transport: uridine, thymidine up to 10 mM, adenosine, inosine up to 1 mM
[4] = molecular target: T. vaginalis nucleoside transporters, Cytidine (LA); experiment: Low affinity cytidine transport in T. vaginalis trophozoites; assay type: cell-based, Trichomonas vaginalis; conditions: read-out: Ki,app; inhibition of Cytidine (LA) transport; average and SEM
[5] = molecular target: T. vaginalis nucleoside transporters, Uridine (HA); experiment: [3H]-uridine transport in T. vaginalis trophozoites; assay type: cell-based, Trichomonas vaginalis; conditions: read-out: Ki,app; inhibition of 0.5 µM [3H]-uridine transport, 30 s; average and SEM
[6] = molecular target: TvagENT6 (Trichomonas vaginalis, UniProt A2EMT5); experiment: cell-based
[7] = system: T. vaginalis nucleoside transporters, Thymidine (LA); experiment: Low affinity thymidine transport; assay type: cell-based, Trichomonas vaginalis; conditions: for EC50: Fig. 3E
[8] = system: T. vaginalis nucleoside transporters, Adenosine (LA); experiment: Low affinity adenosine transport; assay type: cell-based, Trichomonas vaginalis; conditions: for EC50 / Ki: inhibition of 20 µM [3H]-adenosine transport; for EC50: Fig. 4; for Km: read-out: Km,app; for inhibition of transport: highest tested concentration: guanosine 250 µM, adenine 1 mM, hypoxanthine 1 mM, uracil 10 mM; for Ki: read-out: Ki,app
[9] = system: T. vaginalis nucleoside transporters, Adenosine (HA); experiment: High affinity [3H]-adenosine transport in T. vaginalis trophozoites; assay type: cell-based, Trichomonas vaginalis; conditions: for Ki: read-out: Ki,app, inhibition of […] [3H]-adenosine transport, monophasic
[10] = molecular target: T. vaginalis nucleoside transporters, Inosine (LA); experiment: Low affinity [3H]-inosine transport in T. vaginalis trophozoites; assay type: cell-based, Trichomonas vaginalis; conditions: read-out: Ki,app, inhibition of 1 µM [3H]-inosine uptake, average and SEM
[11] = system: T. vaginalis nucleoside transporters; conditions: ref Harris et al., 1988; cited from earlier work
[12] = molecular target: TvagENT3 (Trichomonas vaginalis, UniProt A2E5Q3); experiment: [3H]-cytidine uptake by T. brucei TbAT1-KO cells expressing TvagENT3
[13] = system: T. vaginalis adenine transporter; experiment: [3H]-adenine transport in T. vaginalis trophozoites; assay type: cell-based, Trichomonas vaginalis
[14] = molecular target: T. vaginalis nucleoside transporters, Guanosine (HA); experiment: [3H]-guanosine transport in T. vaginalis trophozoites; assay type: cell-based, Trichomonas vaginalis; conditions: read-out: Ki,app; inhibition of [3H]-guanosine transport; monophasic sigmoid curve; average and SEM
[15] = system: T. vaginalis trophozoites; experiment: [3H]-guanine transport in T. vaginalis trophozoites; assay type: cell-based, Trichomonas vaginalis; conditions: 2 µM [3H]-guanine
[16] = system: T. vaginalis nucleoside transporters, Thymidine (HA); experiment: Higher affinity [3H]-thymidine transport; assay type: cell-based, Trichomonas vaginalis; conditions: for inhibition of transport: nucleobase at 1 mM
[17] = system: T. vaginalis trophozoites; conditions: 1 µM [3H]-hypoxanthine over 300 s, with or without 1 mM unlabelled hypoxanthine
[18] = system: P1 transporter; conditions: thymidine uptake by P1 transporter; ref De Koning and Jarvis, 1999; cited from earlier work
[19] = system: uracil transporter; assay type: cell-based, Trypanosoma brucei; conditions: 0.25 µM [3H]-uridine, control (empty vector) cells, 250 µM uracil
[20] = system: O=c1ccn([C@@H]2O[C@H](CO)[C@@H](O)[C@H]2O)c(=O)[nH]1; experiment: cells, lysate or membranes; conditions: other: single experiment, Fig. 11D inset
[21] = Lineweaver-Burk double reciprocal plot, single experiment, Fig. 3F
[22] = single experiment, Fig. 3C inset
[23] = saturation curve, single experiment, Fig. 3E inset
[24] = single experiment, Fig. 5D inset

Nc1ncnc2c1c(-c1ccc(Cl)cc1)cn2[C@@H]1O[C@H](CO)[C@@H](O)[C@H]1O [7-(4-Cl-phenyl),7-deazaadenosine]
efficacy [1]: efficacious

Nc1ncnc2c1ncn2[C@@H]1O[C@H](CO)[C@@H](O)[C@H]1O [adenosine]
Ki [2]: 2.18 ± 0.29 µM
Ki ([2]; listed as Adenosine): 2.2 ± 0.3 µM
inhibition of uracil transport [3]: unable to inhibit
Ki [4]: 357 ± 32 µM
Ki [5]: 8.16 ± 0.59 µM
Ki [6]: 47.2 ± 6.4 µM
EC50 ([7]; 1 µM [3H]-thymidine, single experiment): 89.8 µM
Vmax ([8]; Adenosine (LA), average and SEM): 31 ± 2 pmol(10^7 cells)^−1s^−1
EC50 ([8]; single experiment): 60.5 µM
Km ([8]; Adenosine (LA), 20 µM [3H]-adenosine, average and SEM): 59.4 ± 6.1 µM
Km ([8]; Adenosine (LA), 20 µM [3H]-adenosine, average and SEM, listed as Adenosine): 59 ± 6 µM
Km ([8]; single experiment, Fig. 4A inset): 63.5 µM
rate of transport in the presence of unlabelled permeant ([9]; 0.25 µM [3H]-adenosine + 1 mM unlabelled adenosine): 0.0091 ± 0.0085 pmol(10^7 cells)^−1s^−1
inhibition of uptake ([9]; 0.25 µM [3H]-adenosine by 1 mM unlabelled adenosine): > 99%
rate of transport ([9]; 0.25 µM [3H]-adenosine, over 60 s, uninhibited): 1.15 pmol(10^7 cells)^−1s^−1 and 1.15 ± 0.06 pmol(10^7 cells)^−1s^−1
Vmax ([9]; Adenosine (HA), average and SEM): 9.5 ± 2.4 pmol(10^7 cells)^−1s^−1
Km ([9]; read-out: Km,app, Adenosine (HA), […] [3H]-adenosine, 30 s, average and SEM): 6.2 ± 0.6 µM
Ki [10]: 6.36 ± 1.69 µM
Ki ([10]; listed as Adenosine): 6.4 ± 1.7 µM
Km [11]: 3.9 µM
Hill slope [12]: −1.04 ± 0.07
inhibition of cytidine uptake ([12]; 0.5 µM [3H]-cytidine, inhibitor at 400 µM): completely
Hill slope ([12]; single experiment, Fig. 10D-F): −1.1
EC50 [13]: 85.9 µM
Ki ([13]; read-out: Ki,app, inhibition of 50 nM [3H]-adenine transport): 155 ± 48 µM
Ki [14]: 4.1 ± 0.9 µM

Nc1nc2nc[nH]c2c(=O)[nH]1 [guanine]
rate of uptake [15]: 0.017 ± 0.002 pmol(10^7 cells)^−1s^−1 and 0.0167 ± 0.0020 pmol(10^7 cells)^−1s^−1

O=c1[nH]cnc2nc[nH]c12 [hypoxanthine]
inhibition of transport ([16]; 125 nM [3H]-thymidine): ≤ 50%
inhibition of transport ([8]; 20 µM [3H]-adenosine): ≤ 50%
Ki ([8]; average and SEM): > 1000 µM
Ki ([9]; 30 s, average and SEM): 185 ± 37 µM
specific uptake [17]: no specific uptake

Cc1cn([C@H]2C[C@H](O)[C@@H](CO)O2)c(=O)[nH]c1=O [thymidine]
inhibition of uptake ([16]; 0.125 µM [3H]-thymidine by 1 mM unlabelled thymidine): 75%
rate of uptake ([16]; 0.125 µM [3H]-thymidine, average of 4 experiments over 60 s): 0.0045 ± 0.0012 pmol(10^7 cells)^−1s^−1
Vmax, higher affinity component [16, 21]: 2.2 pmol(10^7 cells)^−1s^−1
Vmax ([16]; Thymidine (HA), average and SEM): 0.69 ± 0.37 pmol(10^7 cells)^−1s^−1
Vmax ([16]; Thymidine (HA), average and SEM, listed as Thymidine): 6.7 ± 1.8 pmol(10^7 cells)^−1s^−1
EC50 ([16]; inhibition of 0.125 µM [3H]-thymidine uptake, single experiment, Fig. 3C/D): 11.7 µM
Km ([16]; read-out: Km, higher affinity component, Lineweaver-Burk double reciprocal plot, single experiment, Fig. 3F): 23.6 µM
Km ([16]; read-out: Km,app, Thymidine (HA), 125 nM [3H]-thymidine, average and SEM): 13.2 ± 0.8 µM
Km [16, 22]: 15.1 µM
Vmax [16, 22]: 0.245 pmol(10^7 cells)^−1s^−1
inhibition of uracil transport [3]: unable to inhibit
affinity [18]: 44 µM
rate of uptake ([7]; 1 µM [3H]-thymidine): 0.139 ± 0.008 pmol(10^7 cells)^−1s^−1
rate of uptake in the presence of unlabelled permeant ([7]; 1 µM [3H]-thymidine + 1 mM thymidine): 0.013 ± 0.0018 pmol(10^7 cells)^−1s^−1
inhibition of uptake ([7]; 1 µM [3H]-thymidine by 1 mM unlabelled thymidine): 90.6%
Vmax, low affinity component [7, 21]: 12.0 pmol(10^7 cells)^−1s^−1
Vmax ([7]; Thymidine (LA), average and SEM): 9.4 ± 2.5 pmol(10^7 cells)^−1s^−1
EC50 ([7]; read-out: EC50, higher affinity component, 1 µM [3H]-thymidine, 2-site equation, single experiment): 10.7 µM
EC50 ([7]; read-out: EC50, lower affinity component, 1 µM [3H]-thymidine, 2-site equation, single experiment): 529 µM
Km ([7]; read-out: Km, low affinity component, Lineweaver-Burk double reciprocal plot, single experiment, Fig. 3F): 340 µM
Km ([7]; read-out: Km,app, Thymidine (LA), 1 µM [3H]-thymidine, average and SEM): 470 ± 104 µM
Km [7, 23]: 394 µM
Vmax [7, 23]: 12.9 pmol(10^7 cells)^−1s^−1
EC50 ([8]; single experiment): 817 µM
Ki ([8]; average and SEM): 557 ± 135 µM
Ki ([9]; 30 s, average and SEM): 274 ± 45 µM
Hill slope [12]: −1.17 ± 0.15
Ki [12]: 286 ± 12 µM
inhibition at 400 µM ([12]; read-out: inhibition of cytidine uptake): 62.6%
Hill slope ([12]; single experiment, Fig. 10D-F): −1.1
Ki [14]: 206 ± 62 µM

O=c1cc[nH]c(=O)[nH]1 [uracil]
inhibition of transport ([16]; 125 nM [3H]-thymidine): ≤ 50%
rate of uptake ([3]; 0.5 µM [3H]-uracil): 0.0056 ± 0.0003 pmol(10^7 cells)^−1s^−1
rate of uptake in the presence of unlabelled permeant ([3]; 0.5 µM [3H]-uracil + 1 mM unlabelled uracil): 0.0011 ± 0.0002 pmol(10^7 cells)^−1s^−1
EC50 ([3]; 0.5 µM [3H]-uracil over 20 s, single experiment, Fig. 5D): 247 µM
Vmax ([3]; 0.5 µM [3H]-uracil, 20 s, average): 1.58 ± 0.08 pmol(10^7 cells)^−1s^−1
Km ([3]; read-out: Km,app, 0.5 µM [3H]-uracil, 20 s, average): 257 ± 58 µM
Km [3, 24]: 298 µM
Vmax [3, 24]: 1.43 pmol(10^7 cells)^−1s^−1
inhibition of transport ([8]; 20 µM [3H]-adenosine): ≤ 50%
Ki ([8]; average and SEM): > 10000 µM
reduction of background uridine uptake [19]: ~ 85% and 84.7%

TvagENT6 (Trichomonas vaginalis G3)
Km [20]: 125.4 µM
